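Five compound concentrations were applied to cells in 96-well plates for 48 hours; endpoints were derived by simple linear interpolation of the resulting dose-response curve. GI50 marks 50% less growth. Definition used: TGI = concentration required for complete inhibition of growth.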
Legend:
Assay in all cases: NCI tumour cell line growth inhibition, 48 h
[1] = tested on: RXF 393 renal
[2] = tested on: COLO 205 colon
[3] = tested on: EKVX NSCLC
[4] = tested on: HL-60(TB) leukemia
[5] = tested on: HOP-62 NSCLC
[6] = tested on: NCI-H23 lung
[7] = tested on: HCT-15 colon
[8] = tested on: OVCAR-8 ovarian
[9] = tested on: IGROV1 ovarian
[10] = tested on: CCRF-CEM leukemia

| Structure (SMILES) | TGI [1] [µM] | TGI [2] [µM] | TGI [3] [µM] | TGI [4] [µM] | TGI [5] [µM] | TGI [6] [µM] | TGI [7] [µM] | TGI [8] [µM] | TGI [9] [µM] | TGI [10] [µM] | GI50 [1] [µM] | GI50 [3] [µM] | GI50 [4] [µM] | GI50 [5] [µM] | GI50 [6] [µM] | GI50 [7] [µM] | GI50 [8] [µM] | GI50 [9] [µM] | GI50 [10] [µM] | GI50 [2] [µM] |
| --- | --- | --- | --- | --- | --- | --- | --- | --- | --- | --- | --- | --- | --- | --- | --- | --- | --- | --- | --- | --- |
| CC1CC2=C(S(=O)(=O)c3ccccc3)CC(S(=O)(=O)c3ccccc3)(S(=O)(=O)c3ccccc3)CC21 (stereo not drawn) | > 100 | > 100 | > 100 | > 100 | > 100 | > 100 | > 100 | > 100 | > 100 | > 100 | – | – | – | – | – | – | – | – | – | – |
| CCOP(=O)(OCC)C(c1ccc(F)cc1)N(C(=O)NC(F)(F)F)c1cccc(C(F)(F)F)c1 (stereo not drawn) | > 100 | > 100 | > 100 | > 100 | > 100 | > 100 | > 100 | > 100 | > 100 | > 100 | – | – | – | – | – | – | – | – | – | – |
| COc1ccccc1CNCCCN1C(=O)c2ccc3c4c(ccc(c24)C1=O)C(=O)N(CCCNCCNCCCN)C3=O | 7.12 | – | 16.3 | 6.34 | 14.2 | 5.59 | 26.8 | 11.7 | 15.9 | 56.8 | 1.65 | 4.17 | 2.54 | 2.46 | 1.72 | 12.2 | 2.08 | 3.69 | 3.17 | – |
| COc1cc2oc(-c3ccc(O)cc3)c(OC)c(=O)c2c(O)c1OC | > 100 | > 100 | > 100 | – | > 100 | > 100 | > 100 | > 100 | > 100 | > 100 | 29 | 97 | – | 42.3 | 63.4 | 23.3 | 86.1 | 76.6 | 15.2 | 32.1 |
| C/C(=N/NC(N)=S)c1ccc[nH]1 | > 100 | > 100 | > 100 | > 100 | > 100 | > 100 | > 100 | > 100 | > 100 | > 100 | – | – | – | – | – | – | – | – | – | – |
| CCOC(=O)CNC(=O)N(CC)C12CC3CC(CC(C3)C1)C2 | 388 | 227 | 358 | 314 | 266 | 419 | 228 | 417 | 524 | 388 | – | – | – | – | – | – | – | – | – | – |
| C[C@@H]1Nc2cc(NC(=O)OCCF)nc(N)c2N=C1c1ccccc1 | > 100 | < 0.0001 | – | < 0.0001 | – | > 100 | > 100 | 30 | < 0.0001 | – | – | – | – | – | – | – | – | – | – | – |
| COc1ccc(S(=O)(=O)c2ccccc2[N+](=O)[O-])cc1 | > 100 | > 100 | > 100 | > 100 | > 100 | > 100 | > 100 | > 100 | > 100 | > 100 | – | – | – | – | – | – | – | – | – | – |
| COCc1nc2c(OC)c(-c3nc4nc(N5CCN(C)CC5)ccc4[nH]3)cc(OC)c2n1C | 57.6 | 21.5 | 81.2 | 36.2 | > 100 | > 100 | > 100 | > 100 | > 100 | 45.6 | – | – | – | – | – | – | – | – | – | – |
| Clc1ccc(C[P+](c2ccccc2)(c2ccccc2)c2ccccc2)c(Cl)c1 | 8.67 | 2.44 | 31.4 | 3.25 | 27.9 | 13 | > 100 | 20.1 | 15.6 | 21.3 | – | – | – | – | – | – | – | – | – | – |
| CCOC(=O)c1ccc(N[C@@H]2c3cc4c(cc3C(c3cc(OC)c(O)c(OC)c3)[C@H]3C(=O)OCC32)OCO4)cc1O (stereo partly drawn) | 6.77 | 7.69 | > 22.6 | 5.66 | 1.56 | 4.26 | 2.54 | > 21.9 | > 43.5 | > 100 | – | – | – | – | – | – | – | – | – | – |
| CCOC(=O)Cn1c(=O)ccn(COCCO)c1=O | > 100 | > 100 | > 100 | > 100 | > 100 | > 100 | > 100 | > 100 | > 100 | > 100 | – | – | – | – | – | – | – | – | – | – |
| COCCCNc1nc(N)c(C#N)c(C#N)c1C#N | > 10 | > 10 | > 10 | > 10 | > 10 | > 10 | > 10 | > 10 | > 10 | 6.67 | – | – | – | – | – | – | – | – | – | – |

Reference: PubChem BioAssay (NCI)
